{"source": "patent US7235556B2", "about": "“Methods of treating dry eye disorders” (Alcon, Inc., priority 2003, dated 2007)", "origin": "cited, not measured here", "system": "allergic dermal inflammation", "conditions": "guinea pig model of eczema; reported in the background section"}
{"smiles": "CC(C)(C(=O)O)c1cn2nc(NCCCN3CCC(OC(c4ccccc4)c4ccccc4)CC3)ccc2n1.O.O", "note": "[TAK-427, 2-[6-[[3-[4-(diphenylmethoxy)piperidino]propyl]amino]imidazo[1,2-b]pyridazin-2-yl]2-methylpropionic acid dihydrate]", "values": [{"measurement": "inhibition of allergic dermal inflammation", "result": "inhibit allergic dermal inflammation"}]}
